For test [1], the system named is L1210. Kind of test: Concentration required for 50% cell growth inhibition against L1210 mouse lymphocytic leukemia. Format: functional, cell-based.
In test [2] the test system is L1210. The experiment in a line: Compound was tested for relative inhibitory concentration required for 50% cell growth inhibition against L1210 mouse lymphocytic leukemia to untreated controls. The class given is functional.

The record followed here is ChEMBL document CHEMBL1125942, “A potent, simple derivative of an analog of the CC-1065 alkylation subunit” (Bioorg Med Chem Lett, 1991).

Values after ≈ are worked out from the molar mass of the structure shown.

For the compound `OC1=CC2=NCC3CC23c2ccccc21` (racemic), in the test on L1210 [1], the IC50 came to 2000 ng/mL (≈ 10100 nM). In addition, the “Relative IC50” value in the test with L1210 [2] is reported as 0.0005.
For `CC(C)(C)OC(=O)NNC(=O)N1CC(CCl)c2c1cc(O)c1ccccc21` (racemic) the same measures were 100 ng/mL (≈ 255 nM) and 0.01.
In the test with L1210 [1], `CC(C)(C)OC(=O)N1CC2CC23C1=CC(=O)c1ccccc13` (racemic) displayed an IC50 of 50 ng/mL (≈ 168 nM). Moreover, the “Relative IC50” value in the test on L1210 [2] came to 0.02.
On to `Cl.NNC(=O)N1CC(CCl)c2c1cc(O)c1ccccc21` (racemic), for which the midpoint of inhibition in the test on L1210 [1], the IC50, lay at 1 ng/mL. Besides, the “Relative IC50” value in the test with L1210 [2] amounted to 1.
`COc1c(O)c2c(c3cc(C(=O)N4CCc5c4c(O)c(OC)c4[nH]c(C(=O)N6C[C@H]7C[C@@]78C6=CC(=O)c6[nH]cc(C)c68)cc54)[nH]c13)CCN2C(N)=O` [(+)-CC-1065]: in the test on L1210 [1], the IC50 came to 0.01 ng/mL (≈ 0.0142 nM). For the same compound, the “Relative IC50” value with L1210 [2] is listed as 100.

Usually IC50 stands for the midpoint of a concentration-inhibition curve. A low value points to greater potency.
